# Laboratory results reported in EPA's ToxRefDB 2.
# Tests used:
# rat [1] = details: Subchronic oral toxicity in rodents, sprague dawley, Feed, dose end: 6 month
# dog = details: Chronic toxicity, beagle, Oral, Feed, dose end: 24 month
# rat [2] = details: Combined chronic toxicity/carcinogenicity, fischer, Oral, Feed, dose end: 104 week
# rabbit = details: Prenatal developmental toxicity study, himalayan, Oral, Gavage/Intubation, dose end: 28 GD
# rat [3] = details: Multigenerational reproductive toxicity study, sprague dawley, Oral, Feed, dose end: 2 generation
# rat [4] = details: Prenatal developmental toxicity study, sprague dawley, Oral, Gavage/Intubation, dose end: 20 GD
# rat [5] = details: Subchronic oral toxicity in rodents, sprague dawley, Gavage/Intubation, dose end: 19 GD
# [6] = group: cholinesterase, cholinesterase / cholinesterase / cholinesterase / erythrocyte cholinesterase (che) + cholinesterase / cholinesterase / cholinesterase / …
# [7] = group: systemic, systemic / clinical chemistry / alanine aminotransferase (alt/sgpt) / alanine aminotransferase (alt/sgpt)
# [8] = group: cholinesterase, cholinesterase / cholinesterase / cholinesterase / erythrocyte cholinesterase (che)
# [9] = group: cholinesterase, cholinesterase / cholinesterase / cholinesterase / plasma cholinesterase (che)
# [10] = group: systemic, systemic / organ weight / liver / absolute + systemic / organ weight / liver / relative to body weight
# [11] = group: cholinesterase, cholinesterase / cholinesterase / cholinesterase / brain cholinesterase (che) + cholinesterase / cholinesterase / cholinesterase / plasma …
# [12] = group: systemic, systemic / clinical chemistry / cholesterol / cholesterol + systemic / hematology / erythrocyte (rbc) count differential / erythrocyte (rbc…
# [13] = group: developmental, developmental / developmental malformation / general / crown-rump length + systemic / in life observation / body weight / fetal weight
# [14] = group: maternal, reproductive / reproductive performance / premature delivery / premature delivery + systemic / in life observation / body weight / body …
# [15] = group: offspring, systemic / in life observation / body weight / offspring (pup) weight + systemic / in life observation / body weight / offspring (pup) …
# [16] = group: parental, systemic / organ weight / kidney / absolute + systemic / organ weight / kidney / relative to body weight + systemic / pathology microscopic…
# [17] = group: developmental, developmental / developmental malformation / bone / [other] + developmental / developmental malformation / bone / delayed ossification + …
# [18] = group: maternal, systemic / in life observation / body weight / body weight gain
# [19] = group: developmental, developmental / developmental malformation / bone / ossification sites + developmental / developmental malformation / bone / supernumerary
# [20] = group: systemic, systemic / in life observation / body weight / body weight + systemic / in life observation / body weight / body weight gain + systemic / in…
structure (smiles),measurement,setting,value
CCOP(=S)(OCC)Oc1nc(Cl)c(Cl)cc1Cl [Chlorpyrifos],LEL,rat [1]; [6],0.75 mg/kg/day
same,LOAEL,rat [1]; [6],0.75 mg/kg/day
same,NEL,rat [1]; [6],0.15 mg/kg/day
same,NOAEL,rat [1]; [6],0.15 mg/kg/day
same,LEL,rat [1]; [7],0.15 mg/kg/day
same,LOAEL,rat [1]; [7],> 0.75 mg/kg/day
same,NEL,rat [1]; [7],0.03 mg/kg/day
same,NOAEL,rat [1]; [7],≥ 0.75 mg/kg/day
same,LEL,dog; [8],0.01 mg/kg/day
same,NEL,dog; [8],< 0.01 mg/kg/day
same,LOAEL,dog; [9],0.03 mg/kg/day
same,NOAEL,"dog; group: cholinesterase, cholinesterase / cholinesterase / cholinesterase / plasma cholinesterase (che) + cholinesterase / cholinesterase / cholinesterase / …",0.01 mg/kg/day
same,LEL,dog; [10],3 mg/kg/day
same,LOAEL,dog; [10],> 3 mg/kg/day
same,NEL,dog; [10],1 mg/kg/day
same,NOAEL,dog; [10],≥ 3 mg/kg/day
same,LOAEL,rat [2]; [11],1 mg/kg/day
same,NEL,rat [2]; [11],0.05 mg/kg/day
same,NOAEL,rat [2]; [11],0.1 mg/kg/day
same,LEL,rat [2]; [9],0.1 mg/kg/day
same,LEL,"rat [2]; group: systemic, systemic / clinical chemistry / cholesterol / cholesterol + systemic / clinical chemistry / alkaline phosphatase (alp/alk) / alkaline …",1 mg/kg/day
same,LOAEL,rat [2]; [12],> 10 mg/kg/day
same,NOAEL,rat [2]; [12],≥ 10 mg/kg/day
same,NEL,"rat [2]; group: systemic, systemic / clinical chemistry / cholesterol / cholesterol + systemic / in life observation / body weight / body weight + systemic / …",0.1 mg/kg/day
O=C(NCc1ncc(C(F)(F)F)cc1Cl)c1c(Cl)cccc1Cl [Fluopicolide],LEL,rabbit; [13],60 mg/kg/day
same,LOAEL,rabbit; [13],60 mg/kg/day
same,NEL,rabbit; [13],20 mg/kg/day
same,NOAEL,rabbit; [13],20 mg/kg/day
same,LEL,rabbit; [14],60 mg/kg/day
same,LOAEL,rabbit; [14],60 mg/kg/day
same,NEL,rabbit; [14],20 mg/kg/day
same,NOAEL,rabbit; [14],20 mg/kg/day
same,LEL,rat [3]; [15],180 mg/kg/day
same,LOAEL,rat [3]; [15],180 mg/kg/day
same,NEL,rat [3]; [15],43.7 mg/kg/day
same,NOAEL,rat [3]; [15],43.7 mg/kg/day
same,LEL,rat [3]; [16],145 mg/kg/day
same,LOAEL,rat [3]; [16],145 mg/kg/day
same,NEL,rat [3]; [16],36.4 mg/kg/day
same,NOAEL,rat [3]; [16],36.4 mg/kg/day
same,LEL,rat [4]; [17],700 mg/kg/day
same,LOAEL,rat [4]; [17],700 mg/kg/day
same,NEL,rat [4]; [17],60 mg/kg/day
same,NOAEL,rat [4]; [17],60 mg/kg/day
same,LEL,rat [4]; [18],700 mg/kg/day
same,LOAEL,rat [4]; [18],700 mg/kg/day
same,NEL,rat [4]; [18],60 mg/kg/day
same,NOAEL,rat [4]; [18],60 mg/kg/day
CC(=O)OC(C)(C)C [tert-Butyl acetate],LEL,rat [5]; [19],800 mg/kg/day
same,LOAEL,rat [5]; [19],> 1600 mg/kg/day
same,NEL,rat [5]; [19],400 mg/kg/day
same,NOAEL,rat [5]; [19],≥ 1600 mg/kg/day
same,LEL,rat [5]; [20],1600 mg/kg/day
same,LOAEL,rat [5]; [20],> 1600 mg/kg/day
same,NEL,rat [5]; [20],800 mg/kg/day
same,NOAEL,rat [5]; [20],≥ 1600 mg/kg/day
